Data as given in US10213449B2, “Compositions and methods for treating medulloblastoma” (The Board of Trustees of the Leland Stanford Junior …, priority 2016, dated 2019).
Entries after “also recorded” stand apart in the source; their conditions may differ.

Experiments:
[1] = system: Hh signaling in NIH 3T3 cells exposed to Shh; assay: RT-qPCR of Hh target transcripts in Shh-stimulated NIH 3T3 cells; format: cell-based, mouse
Procedure: (§1) NIH3T3s or SUFU−/− MEFs were plated in 6 well plates at 400,000 cells/well in 10% FBS media constituted of DMEM (Invitrogen11960-069) supplemented with 10% FBS (Hyclone Labs SH30070.02), pen/strep (Life Technologies 15140-122), sodium pyruvate (Invitrogen 11360-070) and glutamax (Invitrogen 35050-061). Cells were then starved in 0.5% FBS for 24 h prior to treatment with 25% ShhN conditioned media in 0.5% FBS+/− drug treatment. GliΔN were treated 48 h post transfection. Unless otherwise stated, all treatments were performed for 6 h. Cell lysis and RNA extraction was performed using Qiashredder homogenizers (Qiagen 79654) and RNEasy mini kits (qiagen 74104) as per manufacturer's instructions. RNA was quantified on a nanodrop spectrophotometer (nanoddrop technologies ND-2000C). Transcript quantification was performed using a TaqMan RNA-to-Ct 1-Step Kit (Life technologies, 4392656) and the Applied Biosystems 7500 RT-PCR system as per the manufacturer's instructions. All primers were commercially available TaqMan® Gene Expression Assay probes purchased from Life Technologies (csnk2a1: Mm00786779_s1, csnk2a2: Mm01243455_m1, csnk2b: Mm00487216_m1, Gli1: Mm00494654_m1, Gli2: Mm.273292, Ccnd1: Mm.273049, Ptch: Mm00436047_m1).

[2] = system: Hh signaling in NIH 3T3s stimulated with SAG; assay: RT-qPCR of Gli1 in NIH 3T3s stimulated with SAG (epistasis study); format: cell-based, mouse; conditions: NIH 3T3s stimulated with SAG; dose-responsive
Procedure: (§2) Epistasis studies were next performed to determine where in the hedgehog pathway CK2 acts. The effect of TBB was examined: (i) in NIH 3T3s stimulated with SAG, a SMO agonist, (ii) in Sufu−/− mouse embryonic fibroblasts (MEF), and (iii) in NIH 3T3 cells overexpressing GLI2 (FIG. 3d-3f).
as §1, with “All primers were commercially available TaqMan® Gene Expression Assay probes purchased from Life Technologies (csnk2a1: Mm00786779_s1, csnk2a2: Mm01243455_m1, csnk2b: Mm00487216_m1, Gli1: Mm00494654_m1, Gli2: Mm.273292, Ccnd1: Mm.273049, Ptch: Mm00436047_m1).” left out

[3] = system: Hh signaling in NIH 3T3 cells overexpressing GLI2 (HA-Gli2ΔN); assay: RT-qPCR of Gli1 in NIH 3T3 cells expressing Gli2ΔN (epistasis study); format: cell-based, mouse; conditions: 3T3 cells with forced expression of HA-Gli2ΔN
Excerpt: as §2
Sufu^−/− MEFs (conditional deletion of exons 4-8) were kindly provided by Pao-Tien Chang (UCSF). SAG (S7779), GDC-0449 (Vismodegib, S1082) and CX-4945 (Silmitasertib, S2248) was purchased from SelleckChem.com. TBB was purchased from EMD (218697). Shh-N conditional medium was made using a HEK 293 cell line that stably secretes ShhN as previously described. Myc-GL12-DN (17649, pCS2-MT-GLI2-deltaN) plasmid was purchased from Addgene (Cambridge, Mass., USA). […]
NIH3T3s or SUFU−/− MEFs were plated in 6 well plates at 400,000 cells/well in 10% FBS media constituted of DMEM (Invitrogen11960-069) supplemented with 10% FBS (Hyclone Labs SH30070.02), pen/strep (Life Technologies 15140-122), sodium pyruvate (Invitrogen 11360-070) and glutamax (Invitrogen 35050-061). […] RNA was quantified on a nanodrop spectrophotometer (nanoddrop technologies ND-2000C). Transcript quantification was performed using a TaqMan RNA-to-Ct 1-Step Kit (Life technologies, 4392656) and the Applied Biosystems 7500 RT-PCR system as per the manufacturer's instructions. […]

Gli2 = Gli2 stability; format: cell-based, mouse
Procedure: as §2
Gli2ΔN cells were lysed with RIPA buffer (sc-24948, Santa Cruz Biotechnology) supplemented with Halt Protease & Phosphatase Inhibitor (Thermo #1861218) for 30 min on ice and lysates were cleared by centrifugation at 13000 rpm, 15 min at 4° C. Supernatants were incubated with 6× Lamelli sample buffer (10570021-1, BioWorld) at 95° C. for 5 min. The samples were then separated with a 7% SDS-PAGE gel and immunoblotted with anti-Gli2 (AF3635-SP, R&D) and anti-β-tubulin (ab6046, Abcam).

[4] = system: MB cell lines (MB55, MB21, MB53); assay: Cell viability of MB cell lines (CellTiter-Glo); format: cell-based, mouse; conditions: multiple MB cell lines derived from Ptch1+/− and Ptch1+/−; Trp53−/− mice
Procedure: Ptch+/−MB cell lines MB55 and MB21 were kindly gifted from Dr. Rosalind Segal (Dana Farber Cancer Institute, Harvard Medical School) and Ptch^+/−; p53^−/− MB53 cells were kindly gifted from Charles Rudin (Memorial Sloan-Kettering Cancer Center). All cell lines were validated for high Gli activity. Cell viability was assessed using CellTiter-Glo (G7573, Promega, WI, USA) according to the manufacturers instructions. Cells were plated at 10000 cells/well in 96-well plates, treated with drugs as indicated and data was collected on a TECAN Infinite 200 plate reader.

[5] = system: Ptch+/−; Trp53−/− MB flank allografts; assay: Flank allograft study, Ptch+/−; Trp53−/− MB; format: in vivo, mouse; conditions: TBB 30 mg/kg IP BID; effect as early as 3 days after initiating treatment; vs vehicle control
Procedure: (§3) In vivo efficacy studies were performed in accordance with protocols approved by the Institutional Animal Care and Use Committee at Stanford University. SmoWT-MB and Smo[…]-MB cells isolated from either parental SmoWT or Smo[…] mouse Ptch^+/-; p53^-/- MB hind-flank allografts were kindly provided by Charles Rudin (Memorial Sloan-Kettering Cancer Center). Ptch+/-; Tpr53-/-, or, Ptch+/-; Tpr53-/-; Smo[…] MB cells were mixed 1:1 with matrigel and 10^7 cells were injected into both flanks of a Nu/Nu mouse. Once tumors reached 225-275 mm^3, mice were randomized to treatment vs. control groups. Treatment groups received 30 mg/kg IP BID of TBB (reconstituted in DMSO at 50 ug/uL), or 37.5 mg/kg IP BID of GDC-0449 (reconstituted in DMSO at 62.5 ug/uL). Control mice were treated with an equivalent volume of DMSO. Corn oil was used in all groups to a total volume of 180 uL/injection and all doses were given with a 28 g insulin syringe. Tumors were measured and mice were weighed daily. Once tumors reached 1.5 cm^2 or met institutional euthanasia criteria, mice were sacrificed and tumors were harvested. Growth curves were generated using GraphPad Prism and significance was measured by two-way ANOVA.

[6] = system: Ptch+/−; Tpr53−/−; SmoD477G MB flank allografts; assay: Flank allograft study, SMO inhibitor-resistant MB; format: in vivo, mouse
Procedure: as §3

[7] = NIH 3T3's following Hh stimulation

Brc1c(Br)c(Br)c2[nH]nnc2c1Br [TBB, 4,5,6,7-tetrabromo-2H-benzotriazole]
Gli2 transcript levels [1, 7]: effective at decreasing | Ptch transcript levels [1, 7]: effective at decreasing | Gli1 mRNA levels ([1]; SHH ligand-induced NIH 3T3 cells, as early as 4 h post exposure): inhibited; also recorded: dramatic decrease; also recorded: loss of Gli1 induction | Gli1 mRNA levels (effect of inhibitor) [2]: substantially decreased; also recorded: dose dependent loss of Gli1 expression | Gli1 mRNA levels [3]: inhibited; also recorded: dose dependent loss of Gli1 expression | GLI2 protein driven off the CMV promoter-expression vector (Gli2; Gli2ΔN cells after TBB treatment): no decrease | endogenous, full length Gli2 mRNA levels (Gli2; after TBB treatment): decreases | cell viability [4]: decreased; also recorded: dose dependent tumoricidal effects | MB flank allograft growth [5]: significant inhibition; also recorded: decreased growth | tumor growth of SmoD477G MB flank allografts ([6]; TBB 30 mg/kg IP BID or GDC-0449 37.5 mg/kg IP BID vs vehicle control): near-complete cessation of tumor growth; also recorded: significant response | BrdU incorporation in flank allografts ([6]; following TBB administration, relative to GDC-0449 and control treated mouse): Decreased
